The results in this text go back to patent US7135462B2, “Hepatitis C virus inhibitors” (priority 2003, dated 2006).

Like-named read-outs stand apart in the source and are kept apart here.

Experiment [1] concerns the target T1, HCV NS3/4A protease complex (BMS strain) (UniProt P27958, C1454S/C1711G, species not given).
T1 construct: for H77 and J4L6S; fused on or other part: Three-lysine solubilising tail at the C-terminus of NS4A
The experiment in a line: Recombinant HCV NS3/4A protease complex FRET peptide assay. In kind it is biochemical, Hepatitis C virus (HCV), genotype 1a. The note with it: NS3/4A BMS strain, activity range class. The text has this:
Recombinant HCV NS3/4A Protease Complex FRET Peptide Assay
Serum from an HCV-infected patient was obtained from Dr. T. Wright, San Francisco Hospital. An engineered full-length cDNA (compliment deoxyribonucleic acid) template of the HCV genome (BMS strain) was constructed from DNA fragments obtained by reverse transcription-PCR (RT-PCR) of serum RNA (ribonucleic acid) and using primers selected on the basis of homology between other genotype 1a strains.
The H77 and J4L6S strains were used for production of recombinant NS3/4A protease complexes. […] Briefly, a three-lysine solubilizing tail was added at the 3′-end of the NS4A coding region. […] Briefly, the NS3/4A protease complex expression was induced with 0.5 millimolar (mM) Isopropyl β-D-1-thiogalactopyranoside (IPTG) for 22 hours (h) at 20° C. […] The cells were resuspended in lysis buffer (10 mL/g) consisting of 25 mM N-(2-Hydroxyethyl)piperazine-N′-(2-Ethane Sulfonic acid) (HEPES), pH 7.5, 20% glycerol, 500 mM Sodium Chloride (NaCl), 0.5% Triton X-100, 1 microgram/milliliter (“μg/mL”) lysozyme, 5 mM Magnesium Chloride (MgCl2), 1 μg/ml DnaseI, 5 mM β-Mercaptoethanol (βME), Protease inhibitor—Ethylenediamine Tetraacetic acid (EDTA) free (Roche), homogenized and incubated for 20 minutes (min) at 4° C. The homogenate was sonicated and clarified by ultra-centrifugation at 235000 g for 1 h at 4° C. Imidazole was added to the supernatant to a final concentration of 15 mM and the pH adjusted to 8.0. The crude protein extract was loaded on a Nickel—Nitrilotriacetic acid (Ni-NTA) column pre-equilibrated with buffer B (25 mM HEPES, pH 8.0, 20% glycerol, 500 mM NaCl, 0.5% Triton X-100, 15 mM imidazole, 5 mM βME). The sample was loaded at a flow rate of 1 mL/min. The column was washed with 15 column volumes of buffer C (same as buffer B except with 0.2% Triton X-100). The protein was eluted with 5 column volumes of buffer D (same as buffer C except with 200 mM Imidazole).
NS3/4A protease complex-containing fractions were pooled and loaded on a desalting column Superdex-S200 pre-equilibrated with buffer D (25 mM HEPES, pH 7.5, 20% glycerol, 300 mM NaCl, 0.2% Triton X-100, 10 mM βME). Sample was loaded at a flow rate of 1 mL/min. NS3/4A protease complex-containing fractions were pooled and concentrated to approximately 0.5 mg/ml.
The enzyme was stored at −80° C., thawed on ice and diluted prior to use in assay buffer. […] The sequence of this peptide is loosely based on the NS4A/NS4B natural cleavage site for the HCV NS3 protease except there is an ester linkage rather than an amide bond at the cleavage site. The peptide substrate was incubated with one of the three recombinant NS3/4A protease complexes, in the absence or presence of a compound of the present invention, and the formation of fluorescent reaction product was followed in real time using a Cytofluor Series 4000.
The reagents were as follow: HEPES and Glycerol (Ultrapure) were obtained from GIBCO-BRL. Dimethyl Sulfoxide (DMSO) was obtained from Sigma. β-Mercaptoethanol was obtained from Bio Rad.
Assay buffer: 50 mM HEPES, pH 7.5; 0.15 M NaCl; 0.1% Triton; 15% Glycerol; 10 mM βME. Substrate: 2 μM final concentration (from a 2 mM stock solution in DMSO stored at −20° C.). HCV NS3/4A protease type 1a (1b), 2–3 nM final concentration (from a 5 μM stock solution in 25 mM HEPES, pH 7.5, 20% glycerol, 300 mM NaCl, 0.2% Triton-X100, 10 mM βME).
The assay was performed in a 96-well polystyrene black plate from Falcon.

Experiment [2] deals with HCV replicon in Huh7 cells. The experiment in a line: microbe, parasite or virus in culture. The note with it: Hepatitis C virus, Huh-7, 96 h; Huh7 cells expressing HCV replicon, 4 days; activity range class. In kind it is cell-based, strain 1b. The text has this:
Generation of HCV Replicon
This system enabled us to evaluate the effects of our HCV Protease compounds on HCV RNA replication. Briefly, using the HCV strain 1b sequence described in the Lohmann paper (Assession number: AJ238799), an HCV cDNA was generated encoding the 5′ internal ribosome entry site (IRES), the neomycin resistance gene, the EMCV (encephalomyocarditis viurs)-IRES and the HCV nonstructural proteins, NS3-NS5B, and 3′ non-translated region (NTR). In vitro transcripts of the cDNA were transfected into the human hepatoma cell line, Huh7. […] Resulting cell lines were characterized for positive and negative strand RNA production and protein production over time.
Huh7 cells, constitutively expressing the HCV replicon, were grown in Dulbecco's Modified Eagle Media (DMEM) containing 10% Fetal calf serum (FCS) and 1 mg/ml G418 (Gibco-BRL). Cells were seeded the night before (1.5×10^4 cells/well) in 96-well tissue-culture sterile plates. Compound and no compound controls were prepared in DMEM containing 4% FCS, 1:100 Penicillin/Streptomysin, 1:100 L-glutamine and 5% DMSO in the dilution plate (0.5% DMSO final concentration in the assay). Compound/DMSO mixes were added to the cells and incubated for 4 days at 37° C. After 4 days, plates were rinsed thoroughly with Phosphate-Buffered Saline (PBS) (3 times 150 μl). The cells were lysed with 25 μl of a lysis assay reagent containing the FRET peptide (RET S1, as described for the in vitro enzyme assay). The lysis assay reagent was made from 5× cell Luciferase cell culture lysis reagent (Promega #E153A) diluted to 1× with distilled water, NaCl added to 150 mM final, the FRET peptide diluted to 10 μM final from a 2 mM stock in 100% DMSO. The plate was then placed into the Cytofluor 4000 instrument which had been set to 340 nm excitation/490 nm emission, automatic mode for 21 cycles and the plate read in a kinetic mode. EC50 determinations were carried out as described for the IC50 determinations. […]
The percentage inhibition was calculated using the formula below: […]
The values were graphed and analyzed using XLFit to obtain the EC50 value.

By IC50 is commonly meant the concentration that gives 50% inhibition. The term EC50 denotes the concentration at which the effect is half-maximal. A higher EC50 goes with lower potency in that assay. Turning to `C=C[C@@H]1C[C@]1(NC(=O)[C@@H]1C[C@@H](Oc2nccc3cc(OC)ccc23)CN1C(=O)[C@@H](NC(=O)OC(C)(C)C)C(C)(C)C)C(=O)NS(=O)(=O)C1(C)CC1` [Cmpd 301, (1-{4-(6-Methoxy-isoquinolin-1-yloxy)-2-[1-(1-methyl-cyclopropanesulfonylaminocarbonyl)-2-vinyl-cyclopropylcarbamoyl]-pyrrolidine-1-carbonyl}-2,2-dimethyl-propyl)-carbamic acid tert-butyl ester], in experiment [1] (read-out: IC50), the IC50 is under 100 nM. Besides, the 50% effective concentration (EC50) in experiment [2] is under 100 nM.
As for `C=C[C@@H]1C[C@]1(NC(=O)[C@@H]1C[C@@H](Oc2nccc3ccccc23)CN1C(=O)[C@@H](NC(=O)OC(C)(C)C)C(C)(C)C)C(=O)NS(=O)(=O)C1(CC2CC2)CC1` [Cmpd 400], in experiment [1], the IC50 is under 100 nM. The EC50 in experiment [2] was in the range of 100 to 1000 nM.
In the same order, the values of `C=C[C@@H]1C[C@]1(NC(=O)[C@@H]1C[C@@H](Oc2nc(Cl)cc3c(OC)cccc23)CN1C(=O)[C@@H](NC(=O)OC(C)(C)C)C(C)(C)C)C(=O)NS(=O)(=O)C1(CC)CC1` [Cpd 113] are under 100 nM and 100 to 1000 nM.
`C=C[C@@H]1C[C@]1(NC(=O)[C@@H]1C[C@@H](Oc2nccc3cc(OC)ccc23)CN1C(=O)[C@@H](NC(=O)OC(C)(C)C)C(C)(C)C)C(=O)NS(=O)(=O)C1(CC)CC1` [Cmpd 300, {1-[2-[1-(1-Ethyl-cyclopropanesulfonylaminocarbonyl)-2-vinyl-cyclopropylcarbamoyl]-4-(6-methoxy-isoquinolin-1-yloxy)-pyrrolidine-1-carbonyl]-2,2-dimethyl-propyl}-carbamic acid tert-butyl ester]: the IC50 in experiment [1] (read-out: IC50) is under 100 nM. In experiment [2], the EC50 is under 100 nM.
As to `C=C[C@@H]1C[C@]1(NC(=O)[C@@H]1C[C@@H](Oc2nccc3cc(OC)ccc23)CN1C(=O)[C@@H](NC(=O)OC(C)(C)C)C(C)(C)C)C(=O)NS(=O)(=O)C1(CCC)CC1` [Cmpd 302, (1-{4-(6-Methoxy-isoquinolin-1-yloxy)-2-[1-(1-propyl-cyclopropanesulfonylaminocarbonyl)-2-vinyl-cyclopropylcarbamoyl]-pyrrolidine-1-carbonyl}-2,2-dimethyl-propyl)-carbamic acid tert-butyl ester], the IC50 in experiment [1] (read-out: IC50) is under 100 nM. The compound also returned a concentration giving a half-maximal response (EC50) in experiment [2] of under 100 nM.
Regarding `C=C[C@@H]1C[C@]1(NC(=O)C1C[C@@H](Oc2nc(-c3ccccc3)nc3ccccc23)CN1C(=O)[C@@H](NC(=O)OC(C)(C)C)C(C)(C)C)C(=O)NS(=O)(=O)C1(CC2CC2)CC1` (stereo partly drawn) [Cmpd 600], the half-inhibitory concentration (IC50) in experiment [1] (read-out: IC50) was under 100 nM. The compound further displayed an EC50 in experiment [2] of under 100 nM.
On to `C=C[C@@H]1C[C@]1(NC(=O)[C@@H]1C[C@@H](Oc2nccc3cc(OC)ccc23)CN1C(=O)[C@@H](NC(=O)NC(C)(C)C)C(C)(C)C)C(=O)NS(=O)(=O)C1(C)CC1` [Cmpd 217], for which the concentration for half-maximal inhibition (IC50) in experiment [1] was under 100 nM. This compound showed an EC50 in experiment [2] of under 100 nM.
As for `C=C[C@@H]1C[C@]1(NC(=O)[C@@H]1C[C@@H](Oc2cc(-c3ccccc3)nc3c(C)noc23)CN1C(=O)[C@@H](NC(=O)OC(C)(C)C)C(C)(C)C)C(=O)NS(=O)(=O)C1(Cc2ccccc2)CC1` [Cmpd 500], in experiment [1] (read-out: IC50), the half-maximal inhibitory concentration (IC50) is under 100 nM. Moreover, the 50% effective concentration (EC50) in experiment [2] lay within 100 to 1000 nM.
In the same order, the values of `C=C[C@@H]1C[C@]1(NC(=O)[C@@H]1C[C@@H](Oc2nccc3cc(OC)ccc23)CN1C(=O)[C@@H](NC(=O)OC(C)(C)C)C(C)(C)C)C(=O)NS(=O)(=O)C1(Cl)CC1` [Cmpd 304, {1-[2-[1-(1-Chloro-cyclopropanesulfonylaminocarbonyl)-2-vinyl-cyclopropylcarbamoyl]-4-(6-methoxy-isoquinolin-1-yloxy)-pyrrolidine-1-carbonyl]-2,2-dimethyl-propyl}-carbamic acid tert-butyl ester] are under 100 nM and under 100 nM.
